This note sets out measurements from PMC9719519, “Non-classical ferroptosis inhibition by a small molecule targeting PHB2” (Nature Communications, 2022).

SMILES strings stand for the structures.

Holding throughout (assay): biochemical
Holding throughout (set-up): Eurofins recombinant human kinase profiling, remaining kinase activity as % of control, 10 uM ATP
Common to all, as to details: ATP 10 uM; read-out: %Ctrl@10 μM

The target in experiment [1] is BTK(h) (Homo sapiens, UniProt Q06187). The essentials: (§1)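 Recombinant human kinases, 401 in total, screened using an outsourced kinase profiling assay.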
In experiment [2] the target is Blk(h) (Homo sapiens, UniProt P51451). A digest of the protocol:
as §1

Experiment [3] concerns the target CDK17/cyclinY(h) (Homo sapiens, UniProt Q00537). The essentials:
as §1

Experiment [4] addresses T1, CaMKIIβ(h) (Homo sapiens, UniProt Q13554).
T1 construct: gene CAMK2B
The essentials:
as §1

Experiment [5] deals with DMPK(h) (Homo sapiens, UniProt Q09013). The essentials:
as §1

In experiment [6] the target is DYRK2(h) (Homo sapiens, UniProt Q92630). The essentials:
as §1

The target in experiment [7] is EGFR(T790M)(h) (Homo sapiens, UniProt P00533, T790M). A digest of the protocol:
as §1

Experiment [8] addresses EphA2(h) (Homo sapiens, UniProt P29317). A digest of the protocol:
as §1

Experiment [9] addresses Flt3(h) (Homo sapiens, UniProt P36888). The essentials: as §1
For experiment [10], the target named is HIPK2(h) (Homo sapiens, UniProt Q9H2X6). A digest of the protocol:
as §1

In experiment [11] the target is T2, MAPK2(h) (Homo sapiens, UniProt P28482).
T2 construct: gene MAPK1
The essentials: as §1

In experiment [12] the target is T3, NDR2(h) (Homo sapiens, UniProt Q9Y2H1).
T3 construct: gene STK38L
A digest of the protocol: as §1

The target of experiment [13] is PAK5(h) (Homo sapiens, UniProt Q9P286). A digest of the protocol:
as §1

Experiment [14] addresses T4, PKCμ(h) (Homo sapiens, UniProt Q15139).
T4 construct: gene PRKD1
A digest of the protocol:
as §1

The target of experiment [15] is T5, PKR(h) (Homo sapiens, UniProt P19525).
T5 construct: gene EIF2AK2
The essentials:
as §1

Experiment [16] has as its target T6, PTK5(h) (Homo sapiens, UniProt P42685).
T6 construct: gene FRK
A digest of the protocol: as §1

Experiment [17] deals with Ret(V804M)(h) (Homo sapiens, UniProt P07949, V804M). A digest of the protocol:
as §1

The target of experiment [18] is T7, Rsk2(h) (Homo sapiens, UniProt P51812).
T7 construct: gene RPS6KA3
A digest of the protocol: as §1

For experiment [19], the target named is T8, SGK(h) (Homo sapiens, UniProt O00141).
T8 construct: gene SGK1
A digest of the protocol:
as §1

Experiment [20] deals with SLK(h) (Homo sapiens, UniProt Q9H2G2). The essentials:
as §1

Experiment [21] has as its target Src(T341M)(h) (Homo sapiens, UniProt P12931, T341M). The essentials:
as §1

In experiment [22] the target is Tec(h) activated (Homo sapiens, UniProt P42680). The essentials: as §1
Experiment [23] has as its target WNK3(h) (Homo sapiens, UniProt Q9BYP7). The essentials: as §1

CDK17/cyclinY(h), sequence (Q00537 whole entry): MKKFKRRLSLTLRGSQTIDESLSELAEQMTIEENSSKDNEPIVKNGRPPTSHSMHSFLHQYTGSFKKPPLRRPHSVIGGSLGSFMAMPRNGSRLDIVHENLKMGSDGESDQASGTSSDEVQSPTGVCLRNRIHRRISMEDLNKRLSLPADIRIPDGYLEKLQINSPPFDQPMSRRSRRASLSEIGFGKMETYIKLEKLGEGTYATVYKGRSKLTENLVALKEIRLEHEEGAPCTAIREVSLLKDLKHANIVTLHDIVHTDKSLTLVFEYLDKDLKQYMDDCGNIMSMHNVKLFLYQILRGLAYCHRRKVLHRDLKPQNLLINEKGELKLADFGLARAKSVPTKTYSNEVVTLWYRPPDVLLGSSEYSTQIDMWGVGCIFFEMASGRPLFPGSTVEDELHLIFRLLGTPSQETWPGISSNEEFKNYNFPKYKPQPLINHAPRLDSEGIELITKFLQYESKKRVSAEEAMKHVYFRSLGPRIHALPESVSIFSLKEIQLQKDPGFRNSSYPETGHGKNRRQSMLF
CDK17/cyclinY(h), sequence (Q8ND76 whole entry partner): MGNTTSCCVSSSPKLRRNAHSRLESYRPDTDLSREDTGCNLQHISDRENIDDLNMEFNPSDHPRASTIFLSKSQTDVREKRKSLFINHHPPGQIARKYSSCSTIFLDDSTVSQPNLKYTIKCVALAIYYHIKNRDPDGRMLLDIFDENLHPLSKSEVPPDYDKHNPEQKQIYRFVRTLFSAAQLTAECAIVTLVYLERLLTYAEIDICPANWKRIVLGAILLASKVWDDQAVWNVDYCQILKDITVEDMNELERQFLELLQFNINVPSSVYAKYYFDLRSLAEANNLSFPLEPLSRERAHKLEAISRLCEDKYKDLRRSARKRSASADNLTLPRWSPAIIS
SLK(h), sequence (Q9H2G2 whole entry): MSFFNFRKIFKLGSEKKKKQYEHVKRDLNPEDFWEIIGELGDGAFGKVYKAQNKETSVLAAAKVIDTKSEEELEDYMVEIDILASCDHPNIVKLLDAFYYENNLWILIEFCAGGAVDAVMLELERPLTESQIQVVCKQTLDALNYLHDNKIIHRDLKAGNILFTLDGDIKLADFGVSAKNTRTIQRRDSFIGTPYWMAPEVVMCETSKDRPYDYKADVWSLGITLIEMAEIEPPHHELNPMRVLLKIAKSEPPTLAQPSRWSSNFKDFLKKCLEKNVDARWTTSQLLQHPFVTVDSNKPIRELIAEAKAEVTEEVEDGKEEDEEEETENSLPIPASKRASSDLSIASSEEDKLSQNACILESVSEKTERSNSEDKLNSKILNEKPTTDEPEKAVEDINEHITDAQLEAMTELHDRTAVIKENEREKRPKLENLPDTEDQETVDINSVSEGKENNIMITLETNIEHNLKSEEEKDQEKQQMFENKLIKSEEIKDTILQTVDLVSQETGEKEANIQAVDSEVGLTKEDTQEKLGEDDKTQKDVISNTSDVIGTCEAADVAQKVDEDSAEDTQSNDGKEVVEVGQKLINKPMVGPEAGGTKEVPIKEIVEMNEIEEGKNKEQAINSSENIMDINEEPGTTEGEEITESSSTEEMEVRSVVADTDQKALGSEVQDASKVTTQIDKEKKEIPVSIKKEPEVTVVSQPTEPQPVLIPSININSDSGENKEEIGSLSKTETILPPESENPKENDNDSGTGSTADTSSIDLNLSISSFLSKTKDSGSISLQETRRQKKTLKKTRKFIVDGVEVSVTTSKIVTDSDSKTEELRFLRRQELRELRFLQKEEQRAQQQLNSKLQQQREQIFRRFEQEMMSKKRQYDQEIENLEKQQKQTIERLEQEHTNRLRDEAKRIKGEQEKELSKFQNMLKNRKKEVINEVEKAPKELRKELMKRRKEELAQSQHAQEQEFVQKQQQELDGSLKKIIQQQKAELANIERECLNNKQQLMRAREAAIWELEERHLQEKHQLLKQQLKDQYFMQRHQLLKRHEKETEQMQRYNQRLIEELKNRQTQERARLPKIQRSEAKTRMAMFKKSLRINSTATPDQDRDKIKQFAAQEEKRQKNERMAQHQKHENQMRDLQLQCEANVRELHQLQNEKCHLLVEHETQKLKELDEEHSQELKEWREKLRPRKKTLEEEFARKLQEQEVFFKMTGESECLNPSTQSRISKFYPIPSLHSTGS
WNK3(h), sequence (Q9BYP7 whole entry): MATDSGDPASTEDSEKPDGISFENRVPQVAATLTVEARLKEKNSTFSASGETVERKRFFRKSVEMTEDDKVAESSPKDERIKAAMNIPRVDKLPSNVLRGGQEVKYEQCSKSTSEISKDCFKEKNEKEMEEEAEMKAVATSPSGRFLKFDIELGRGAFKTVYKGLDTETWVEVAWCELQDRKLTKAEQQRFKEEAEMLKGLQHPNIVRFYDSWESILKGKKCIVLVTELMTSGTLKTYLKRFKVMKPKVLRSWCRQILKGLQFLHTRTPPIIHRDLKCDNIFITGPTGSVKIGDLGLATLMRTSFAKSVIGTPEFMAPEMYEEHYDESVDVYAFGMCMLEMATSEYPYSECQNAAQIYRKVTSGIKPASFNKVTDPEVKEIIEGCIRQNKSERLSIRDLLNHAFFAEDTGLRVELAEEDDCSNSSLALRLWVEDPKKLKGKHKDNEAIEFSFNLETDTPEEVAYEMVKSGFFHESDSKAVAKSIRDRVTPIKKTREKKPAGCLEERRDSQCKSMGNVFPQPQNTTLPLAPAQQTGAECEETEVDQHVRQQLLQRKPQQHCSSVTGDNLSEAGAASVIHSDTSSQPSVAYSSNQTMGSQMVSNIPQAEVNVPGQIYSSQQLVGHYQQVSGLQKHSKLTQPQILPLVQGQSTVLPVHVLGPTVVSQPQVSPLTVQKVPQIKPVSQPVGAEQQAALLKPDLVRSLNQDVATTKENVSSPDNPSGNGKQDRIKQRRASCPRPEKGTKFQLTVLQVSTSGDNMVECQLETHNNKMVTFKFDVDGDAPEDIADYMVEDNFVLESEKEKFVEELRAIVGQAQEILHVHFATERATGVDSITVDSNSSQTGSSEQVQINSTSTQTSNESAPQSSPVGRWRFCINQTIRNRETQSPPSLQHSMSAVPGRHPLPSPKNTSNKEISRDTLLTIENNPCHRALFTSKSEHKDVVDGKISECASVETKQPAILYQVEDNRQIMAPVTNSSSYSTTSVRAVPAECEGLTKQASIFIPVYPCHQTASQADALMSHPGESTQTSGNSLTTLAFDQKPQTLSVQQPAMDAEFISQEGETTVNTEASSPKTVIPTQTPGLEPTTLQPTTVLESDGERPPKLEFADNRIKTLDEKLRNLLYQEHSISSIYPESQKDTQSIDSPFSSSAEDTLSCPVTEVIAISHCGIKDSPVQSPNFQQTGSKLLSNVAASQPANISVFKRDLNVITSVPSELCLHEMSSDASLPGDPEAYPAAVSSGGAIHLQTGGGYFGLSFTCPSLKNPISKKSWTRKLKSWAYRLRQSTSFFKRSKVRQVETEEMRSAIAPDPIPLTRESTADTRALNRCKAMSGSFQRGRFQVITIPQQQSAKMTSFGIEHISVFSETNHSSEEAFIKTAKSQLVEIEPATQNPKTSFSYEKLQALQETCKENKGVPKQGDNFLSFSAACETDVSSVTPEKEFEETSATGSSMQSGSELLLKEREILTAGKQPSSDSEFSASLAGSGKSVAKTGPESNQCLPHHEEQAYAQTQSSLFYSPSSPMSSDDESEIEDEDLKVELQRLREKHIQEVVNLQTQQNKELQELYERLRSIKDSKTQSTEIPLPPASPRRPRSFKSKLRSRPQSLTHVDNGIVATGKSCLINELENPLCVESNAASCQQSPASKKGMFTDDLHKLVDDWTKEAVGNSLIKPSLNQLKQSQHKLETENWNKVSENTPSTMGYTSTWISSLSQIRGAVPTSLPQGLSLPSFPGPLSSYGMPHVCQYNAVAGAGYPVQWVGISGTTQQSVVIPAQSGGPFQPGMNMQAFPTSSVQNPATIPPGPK
T1 sequence (Q13554 whole entry): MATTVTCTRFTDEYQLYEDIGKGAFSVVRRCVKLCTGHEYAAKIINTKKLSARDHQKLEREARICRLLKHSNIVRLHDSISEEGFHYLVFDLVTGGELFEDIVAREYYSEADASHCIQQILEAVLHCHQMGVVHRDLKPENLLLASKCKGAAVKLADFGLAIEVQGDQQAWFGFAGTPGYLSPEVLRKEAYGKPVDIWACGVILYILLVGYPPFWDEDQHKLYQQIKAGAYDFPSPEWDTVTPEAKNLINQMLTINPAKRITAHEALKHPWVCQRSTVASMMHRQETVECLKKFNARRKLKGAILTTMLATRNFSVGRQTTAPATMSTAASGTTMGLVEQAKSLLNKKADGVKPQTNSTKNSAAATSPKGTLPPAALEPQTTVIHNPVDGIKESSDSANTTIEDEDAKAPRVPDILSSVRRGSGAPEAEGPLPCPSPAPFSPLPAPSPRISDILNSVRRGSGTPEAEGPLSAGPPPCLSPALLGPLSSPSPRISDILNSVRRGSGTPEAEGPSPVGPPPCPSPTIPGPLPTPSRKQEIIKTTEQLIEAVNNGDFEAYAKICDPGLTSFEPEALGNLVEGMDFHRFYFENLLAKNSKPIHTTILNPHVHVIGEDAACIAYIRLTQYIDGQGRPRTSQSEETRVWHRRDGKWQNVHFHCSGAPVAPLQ
T2 sequence (P28482 whole entry): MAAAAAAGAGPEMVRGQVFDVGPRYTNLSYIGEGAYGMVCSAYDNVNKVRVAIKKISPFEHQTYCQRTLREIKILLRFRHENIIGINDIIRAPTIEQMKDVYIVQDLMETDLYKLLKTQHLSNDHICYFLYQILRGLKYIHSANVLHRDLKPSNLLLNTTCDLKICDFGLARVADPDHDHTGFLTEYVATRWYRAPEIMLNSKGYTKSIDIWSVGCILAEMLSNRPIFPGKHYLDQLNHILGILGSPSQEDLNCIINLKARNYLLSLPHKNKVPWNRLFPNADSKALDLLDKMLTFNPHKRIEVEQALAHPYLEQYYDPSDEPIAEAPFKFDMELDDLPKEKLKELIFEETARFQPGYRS

In the case of `C1=C(c2nc(-c3cnn(C4CCNCC4)c3)cn3cc(-c4ccccc4)nc23)CCOC1` [YL-939], the remaining activity at 10 µM came out at 83% in experiment [1]; 100% in experiment [2]; 93% in experiment [3]; 70% in [4]; 107% in experiment [5]; 93% in experiment [6]. Moreover, the remaining activity at 10 µM in experiment [7] turned out to be 138%; in experiment [8], 82%; in [9], 86%; in experiment [10] it was 90%; in experiment [11] it was 88%; in experiment [12], 87%. In addition, the remaining activity at 10 µM in experiment [13] stood at 95%; in experiment [14], 77%; in [15], 97%; in experiment [16], 75%; in [17] it was 102%; in experiment [18], 81%. Besides, the remaining activity at 10 µM came out at 72% in experiment [19]; 70% in experiment [20]; 100% in experiment [21]; 70% in experiment [22]; 87% in experiment [23].
